Laboratory results as given in ChEMBL document CHEMBL1201862, “PubChem BioAssay data set” (2004).
Activity calls are given as the source filed them. Cut-off read from the data, not from the text of the source, for most assays here: actives have a measured EC50 and inactives only a lower limit.

Key:
BJ [1] = experiment: BJ-TERT fibroblast viability loss – cell-based, RAS-independent, luminescence, dose response (AID 1933); type: functional; settings: Homo sapiens
[2] = fluconazole-exposed Candida albicans growth modulators – fluorescence, retest, confirmation (AID 2467); type: functional, cell-based
Streptococcus = experiment: GAS UMAA2166 growth inhibition – luminescence, BacTiterGlo, counter-screen for streptokinase expression inhibitor project, dose response (AID 1915); type: functional, organism-based;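 note: potency for reduction of bacterial viability or growth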
[3] = Trypanosoma cruzi growth suppression in host cells – NIH3T3 host cells, beta-gal luminescence, confirmation (AID 2044); type: functional, cell-based;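 note: intracellular parasites grown in NIH/3T3 mouse fibroblasts as host cells; luminescent beta-galactosidase reporter signal from transgenic T. cruzi replicating inside host cells; inhibitors lower the luminescence signal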
[4] = target: ATP-dependent molecular chaperone HSP82 (Candida albicans (strain WO-1) (Yeast), UniProt C4YTQ8); experiment: steroid-induced GRE reporter decrease in yeast – S. cerevisiae, luminescence, Hsp90 inhibitor project, dose response (AID 2400); type: functional, cell-based;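 note: beta-galactosidase luminescence from glucocorticoid response element reporter as proxy for Hsp90 function; inhibitor potency where signal loss means Hsp90 inhibition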
Chain of ATP-dependent molecular chaperone HSP82 (C4YTQ8 whole entry): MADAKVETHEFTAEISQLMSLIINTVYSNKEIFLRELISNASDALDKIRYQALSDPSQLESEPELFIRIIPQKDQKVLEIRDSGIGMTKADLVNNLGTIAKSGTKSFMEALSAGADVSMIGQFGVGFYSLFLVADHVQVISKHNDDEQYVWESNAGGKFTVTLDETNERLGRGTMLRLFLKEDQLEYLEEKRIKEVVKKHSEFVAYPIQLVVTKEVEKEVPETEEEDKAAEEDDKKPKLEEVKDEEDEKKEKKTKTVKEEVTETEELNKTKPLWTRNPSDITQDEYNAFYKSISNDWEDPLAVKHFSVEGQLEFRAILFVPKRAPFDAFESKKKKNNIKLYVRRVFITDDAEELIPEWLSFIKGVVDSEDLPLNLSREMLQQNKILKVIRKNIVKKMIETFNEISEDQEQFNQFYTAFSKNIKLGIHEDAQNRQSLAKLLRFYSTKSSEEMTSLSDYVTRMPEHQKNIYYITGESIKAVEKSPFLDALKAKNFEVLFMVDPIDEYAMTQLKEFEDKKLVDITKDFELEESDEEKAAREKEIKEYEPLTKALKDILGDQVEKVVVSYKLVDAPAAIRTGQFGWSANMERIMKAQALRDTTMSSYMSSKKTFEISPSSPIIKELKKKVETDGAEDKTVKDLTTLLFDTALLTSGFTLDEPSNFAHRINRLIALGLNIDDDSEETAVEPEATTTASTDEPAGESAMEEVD

Streptokinase A = target: T1, Streptokinase A (Streptococcus pyogenes serotype M1, UniProt P10520); experiment: viability-normalized secreted streptokinase activity reduction – plasminogen activation absorbance, OD405, dose response (AID 1914); type: functional, Streptococcus pyogenes M1 GAS;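 note: secreted streptokinase activity via plasminogen activation per viability signal from cell pellet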
T1 sequence (P10520 whole entry): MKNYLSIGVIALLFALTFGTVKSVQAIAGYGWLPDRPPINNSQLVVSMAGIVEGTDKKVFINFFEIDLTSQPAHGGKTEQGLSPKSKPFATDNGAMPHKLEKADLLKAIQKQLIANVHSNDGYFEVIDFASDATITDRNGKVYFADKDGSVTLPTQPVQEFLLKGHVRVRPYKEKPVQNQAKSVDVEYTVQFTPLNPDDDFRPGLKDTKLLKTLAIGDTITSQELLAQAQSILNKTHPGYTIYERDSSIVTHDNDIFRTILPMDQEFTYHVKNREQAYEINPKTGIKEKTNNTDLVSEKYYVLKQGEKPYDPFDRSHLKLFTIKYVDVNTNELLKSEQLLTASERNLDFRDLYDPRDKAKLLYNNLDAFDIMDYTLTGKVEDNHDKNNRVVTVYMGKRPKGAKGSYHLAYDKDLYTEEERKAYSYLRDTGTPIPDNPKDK

[5] = target: Serine/threonine-protein phosphatase (Candida dubliniensis (strain CD36 / CBS 7987 / NCPF 3949 / NRRLY-17841) (Yeast), UniProt B9W6M3); experiment: blockers of CaCl2-induced CDRE-lacZ signaling – S. cerevisiae, luminescence, secondary, dose response (AID 2388); type: functional, cell-based;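 note: yeast reporter cells carrying a calcineurin-responsive lacZ construct stimulated with calcium chloride; luminescent beta-galactosidase reporter signal in whole cells rather than isolated phosphatase activity; potency for inhibition where a drop in reporter signal means calcineurin blockade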
Chain of Serine/threonine-protein phosphatase (B9W6M3 whole entry): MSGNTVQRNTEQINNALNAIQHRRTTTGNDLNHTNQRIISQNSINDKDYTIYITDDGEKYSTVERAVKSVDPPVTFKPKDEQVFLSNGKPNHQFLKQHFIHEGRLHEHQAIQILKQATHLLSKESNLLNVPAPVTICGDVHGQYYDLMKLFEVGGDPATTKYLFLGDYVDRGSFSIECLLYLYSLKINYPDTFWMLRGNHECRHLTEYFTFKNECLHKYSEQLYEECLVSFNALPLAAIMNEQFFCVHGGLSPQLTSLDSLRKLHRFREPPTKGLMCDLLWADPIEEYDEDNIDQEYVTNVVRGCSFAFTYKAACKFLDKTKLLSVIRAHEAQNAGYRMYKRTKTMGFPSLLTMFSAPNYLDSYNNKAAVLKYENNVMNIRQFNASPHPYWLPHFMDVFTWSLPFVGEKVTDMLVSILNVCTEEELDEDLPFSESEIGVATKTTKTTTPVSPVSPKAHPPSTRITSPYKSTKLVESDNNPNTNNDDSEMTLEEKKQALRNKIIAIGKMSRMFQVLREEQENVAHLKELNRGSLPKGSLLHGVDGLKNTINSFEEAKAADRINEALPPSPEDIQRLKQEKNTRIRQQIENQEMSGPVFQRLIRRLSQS

[6] = test system: Streptococcus sp. 'group A'; experiment: Streptococcus pyogenes SK(-)GAS viability under kanamycin – luminescence, BacTiterGlo, confirmation, counter-screen for streptokinase expression inhibitor project, dose response (AID 1900); type: functional, organism-based
[7] = DRD fibroblast viability loss – cell-based, non-viral oncogenic, luminescence, dose response (AID 1934); type: functional; settings: Homo sapiens
[8] = NIH3T3 cell viability loss – ATP luminescence, mouse fibroblasts, counter-screen, dose response (AID 2010); type: functional, cell-based;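 note: cells exposed to compound for about 90 hours before reading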
BJ [9] = experiment: cells; type: functional, cell-based; settings: Homo sapiens
BJ [10] = experiment: BJ-TERT-LT-ST fibroblast viability loss – cell-based, RAS-independent, luminescence, dose response (AID 1935); type: functional; settings: Homo sapiens;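 note: BJ fibroblasts immortalized with TERT plus LT and ST oncogenes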
INS1 = experiment: INS-1E survival protection against cytokine death – cell-based, luminescence, retest, dose response (AID 449756); type: functional; settings: Rattus norvegicus;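 note: cell death triggered by IL-1 beta plus TNF-alpha plus IFN-gamma mixture; protective hits raise ATP signal compared with cytokine alone wells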
[11] = NIH-3T3 fibroblast cytotoxicity, dose response, cytotoxicity control, cell-based, fluorescence, Alamar Blue, secondary assay (AID 2327); type: functional;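 note: NIH-3T3 mouse fibroblasts cultured with fluconazole at 8 µg/mL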
HEK293 [12] = experiment: optical interference in Abeta FP readout, dose response, artefact control for IDE activator project, biochemical, fluorescence polarization (AID 588442); type: functional, cell-based; settings: Homo sapiens
Insulin-degrading enzyme [13] = target: T2, Insulin-degrading enzyme (Homo sapiens, UniProt P14735); experiment: cellular IDE activation of Abeta substrate cleavage – fluorescence polarization, HEK cells, dose response (AID 588439); type: functional, cell-based
T2 sequence (P14735 whole entry): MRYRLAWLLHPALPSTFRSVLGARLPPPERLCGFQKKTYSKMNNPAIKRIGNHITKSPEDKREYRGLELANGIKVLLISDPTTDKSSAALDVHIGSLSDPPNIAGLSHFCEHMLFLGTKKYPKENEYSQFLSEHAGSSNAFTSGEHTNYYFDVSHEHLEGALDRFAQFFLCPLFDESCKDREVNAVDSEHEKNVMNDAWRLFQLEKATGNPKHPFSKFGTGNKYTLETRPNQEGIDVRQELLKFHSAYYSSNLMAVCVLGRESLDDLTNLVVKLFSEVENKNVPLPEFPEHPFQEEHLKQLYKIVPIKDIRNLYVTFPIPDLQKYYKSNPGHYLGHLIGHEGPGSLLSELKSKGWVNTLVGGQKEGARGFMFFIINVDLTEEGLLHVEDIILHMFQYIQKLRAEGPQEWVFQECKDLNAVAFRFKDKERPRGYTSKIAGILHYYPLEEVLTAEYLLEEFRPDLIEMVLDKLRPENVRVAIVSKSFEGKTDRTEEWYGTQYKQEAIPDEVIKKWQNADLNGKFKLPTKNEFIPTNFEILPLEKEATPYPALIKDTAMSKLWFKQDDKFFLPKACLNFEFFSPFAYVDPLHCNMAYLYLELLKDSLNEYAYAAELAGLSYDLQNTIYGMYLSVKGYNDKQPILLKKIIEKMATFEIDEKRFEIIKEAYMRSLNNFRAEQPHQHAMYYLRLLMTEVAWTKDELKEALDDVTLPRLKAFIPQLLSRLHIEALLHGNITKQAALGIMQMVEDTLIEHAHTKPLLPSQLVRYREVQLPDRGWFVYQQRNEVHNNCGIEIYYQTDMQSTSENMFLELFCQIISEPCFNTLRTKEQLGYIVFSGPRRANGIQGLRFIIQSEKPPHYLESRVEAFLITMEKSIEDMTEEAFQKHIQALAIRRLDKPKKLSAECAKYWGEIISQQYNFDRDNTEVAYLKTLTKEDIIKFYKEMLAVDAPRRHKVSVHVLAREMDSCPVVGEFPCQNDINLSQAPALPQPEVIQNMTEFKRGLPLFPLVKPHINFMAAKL

Insulin-degrading enzyme [14] = target: T2, Insulin-degrading enzyme; experiment: recombinant IDE activation, cell-free – biochemical, fluorescence polarization, counter-screen for IDE activator project, dose response (AID 588681)
HEK293 [15] = experiment: membrane integrity loss in HEK cells – cell-based, fluorescence, cytotoxicity control for IDE activator project, dose response (AID 588440); type: functional; settings: Homo sapiens;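 note: cytotoxicity by LDH release measuring loss of membrane integrity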
Hexokinase HKDC1 = target: T3, Hexokinase HKDC1 (Homo sapiens, UniProt Q2TB90); experiment: SAR analysis of small molecule inhibitors of hexokinase domain containing I (HKDC1). [Related pubchem assays (depositor defined):AID493160, AID493190]; type: functional
T3 sequence (Q2TB90 whole entry): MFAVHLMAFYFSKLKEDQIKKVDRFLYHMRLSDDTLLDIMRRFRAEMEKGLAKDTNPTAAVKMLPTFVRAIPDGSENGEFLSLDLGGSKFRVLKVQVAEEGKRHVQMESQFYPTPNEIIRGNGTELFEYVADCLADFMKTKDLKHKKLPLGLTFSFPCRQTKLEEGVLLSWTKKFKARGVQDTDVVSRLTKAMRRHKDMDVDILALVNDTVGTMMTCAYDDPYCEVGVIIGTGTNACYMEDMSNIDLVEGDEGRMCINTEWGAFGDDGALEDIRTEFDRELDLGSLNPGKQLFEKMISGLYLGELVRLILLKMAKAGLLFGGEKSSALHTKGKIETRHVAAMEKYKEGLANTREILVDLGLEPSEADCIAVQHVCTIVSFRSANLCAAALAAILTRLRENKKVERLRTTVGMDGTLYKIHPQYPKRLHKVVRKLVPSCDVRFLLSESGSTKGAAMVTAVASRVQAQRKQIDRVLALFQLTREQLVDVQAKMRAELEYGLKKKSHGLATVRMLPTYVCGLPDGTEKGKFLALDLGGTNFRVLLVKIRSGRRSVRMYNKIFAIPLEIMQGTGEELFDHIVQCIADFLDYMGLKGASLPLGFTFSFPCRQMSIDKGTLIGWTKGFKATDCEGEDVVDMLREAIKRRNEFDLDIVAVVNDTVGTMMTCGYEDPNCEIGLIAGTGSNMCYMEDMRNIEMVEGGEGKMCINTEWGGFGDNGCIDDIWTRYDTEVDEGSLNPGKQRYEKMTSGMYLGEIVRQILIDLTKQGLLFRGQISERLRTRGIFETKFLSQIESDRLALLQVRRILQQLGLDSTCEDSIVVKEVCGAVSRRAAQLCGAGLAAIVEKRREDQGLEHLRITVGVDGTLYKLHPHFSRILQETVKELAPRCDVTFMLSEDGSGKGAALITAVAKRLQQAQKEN

Hexokinase-1 = target: T4, Hexokinase-1 (Homo sapiens, UniProt P19367); experiment: SAR analysis of small molecule inhibitors of hexokinase domain containing I (HKDC1) in the hexokinase 1 selectivity assay. [Related pubchem assays (depositor defined):AID493160, AID493190]; type: functional
T4 sequence (P19367 whole entry): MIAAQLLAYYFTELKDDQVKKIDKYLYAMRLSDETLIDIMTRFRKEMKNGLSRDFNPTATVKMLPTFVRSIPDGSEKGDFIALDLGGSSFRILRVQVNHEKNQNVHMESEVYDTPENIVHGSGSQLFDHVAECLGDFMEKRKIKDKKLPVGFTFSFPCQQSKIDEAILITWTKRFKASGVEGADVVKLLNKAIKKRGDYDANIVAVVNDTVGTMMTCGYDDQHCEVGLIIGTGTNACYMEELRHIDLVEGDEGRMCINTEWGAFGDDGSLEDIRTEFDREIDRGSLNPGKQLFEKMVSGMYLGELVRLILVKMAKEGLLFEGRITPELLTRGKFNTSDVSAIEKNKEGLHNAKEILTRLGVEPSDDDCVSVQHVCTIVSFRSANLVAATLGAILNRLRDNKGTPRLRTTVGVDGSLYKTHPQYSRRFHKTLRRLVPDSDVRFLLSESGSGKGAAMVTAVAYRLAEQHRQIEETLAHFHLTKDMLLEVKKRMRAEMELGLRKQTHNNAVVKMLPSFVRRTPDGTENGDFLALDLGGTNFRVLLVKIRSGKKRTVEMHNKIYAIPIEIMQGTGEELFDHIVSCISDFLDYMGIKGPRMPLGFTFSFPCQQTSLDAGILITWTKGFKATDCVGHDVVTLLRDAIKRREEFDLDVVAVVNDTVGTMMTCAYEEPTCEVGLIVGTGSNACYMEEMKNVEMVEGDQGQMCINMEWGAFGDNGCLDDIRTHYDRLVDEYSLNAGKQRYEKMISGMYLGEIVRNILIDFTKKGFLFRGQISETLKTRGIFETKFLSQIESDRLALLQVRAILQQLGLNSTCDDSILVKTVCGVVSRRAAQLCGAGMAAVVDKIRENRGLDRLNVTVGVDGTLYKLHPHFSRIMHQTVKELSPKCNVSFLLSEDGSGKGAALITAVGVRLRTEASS

Nc1nonc1-n1nnc(C(=O)N/N=C/c2cc(Cl)ccc2O)c1CN1CCCCCC1
EC50 (BJ [1]): 24.9 µM (active)
EC50 [2]: 0.296 µM (active)
EC50 (Streptococcus): 20.4 µM (active)
EC50 [3]: 1.39 µM (active)
EC50 [4]: > 150 µM (inactive)
EC50 (Streptokinase A): > 150 µM (not active)
EC50 [5]: > 180 µM (inactive)
EC50 [6]: 4.87 µM (active)
EC50 [7]: 55.4 µM (active)
EC50 [8]: 6.91 µM (active)
EC50 (BJ [9]): 115 µM (active)
EC50 (BJ [10]): > 75 µM (not active)
AC50 (INS1): 1.85 µM (active)
EC50 [11]: 29.6 µM (active)

COc1ccc(/C=C2\Oc3cc(OCC(=O)N4CCC(C(=O)O)CC4)ccc3C2=O)c(OC)c1
EC50 (HEK293 [12]): > 56 µM (inactive)
EC50 (Insulin-degrading enzyme [13]): > 54.7 µM (inactive)
EC50 (Insulin-degrading enzyme [14]): > 54.7 µM (inactive)
IC50 (HEK293 [15]): > 89.3 µM (inactive)

O=C(Nc1nnc(SCc2ccccc2)s1)c1ccc2ncsc2c1
IC50 (Hexokinase HKDC1): > 80 µM (inactive)
IC50 (Hexokinase-1): > 80 µM (inactive)
